Results taken from ChEMBL document CHEMBL6078689, “Discovery of novel biaryl urea derivatives against IL-1β release with low toxicity based on NEK7 inhibitor” (Eur J Med Chem, 2025).
Activity calls are given as the source filed them. No cut-off for these calls is given here.

Tests used:
[1] = Cytotoxicity against C57BL/6 mouse BMDM cells assessed as cell viability at 0.1 uM incubated for 4 hrs by CCK-8 assay relative to control; assay type: toxicity, cell-based; conditions: bone marrow-derived macrophages (BMDM cells), read-out: Activity
[2] = test system: BMDM; experiment: Inhibition of NLRP3 inflammasome activation in LPS-induced C57BL/6 mouse BMDM cells assessed as reduction in IL-1beta release at 0.1 uM preincubated with LPS for 1 hrs followed by compound addition and measured after 2 hrs by ELISA relative to control; assay type: cell-based
[3] = Cytotoxicity against C57BL/6 mouse BMDM cells assessed as cell viability incubated for 4 hrs by CCK-8 assay; assay type: toxicity, cell-based; conditions: bone marrow-derived macrophages (BMDM cells)
[4] = Inhibition of NLRP3 inflammasome activation in LPS-induced C57BL/6 mouse BMDM cells assessed as reduction in IL-1beta release preincubated with LPS for 1 hrs followed by compound addition and measured after 2 hrs by ELISA; assay type: cell-based; conditions: C57BL/6, BMDM
[5] = Selectivity index, ratio of CC50 for C57BL/6 mouse BMDM cells to IC50 for Inhibition of NLRP3 inflammasome activation in LPS-induced C57BL/6 mouse BMDM cells assessed as reduction in IL-1beta release; assay type: toxicity, cell-based; conditions: bone marrow-derived macrophages (BMDM cells), read-out: Ratio CC50/IC50
[6] = target: Serine/threonine-protein kinase Nek7 (Homo sapiens, UniProt Q8TDX7); experiment: Inhibition of N-terminal GST-tagged full-length recombinant human NEK7 extracted from baculovirus infected in Sf9 cells preincubated for 20 mins followed by [32P]-ATP addition and measured after 2 hrs
[7] = test system: BMDM; experiment: Binding affinity to NEK7 in LPS-primed C57BL/6 mouse BMDM cells assessed as thermal stabilization preincubated with LPS for 1 hrs followed by compound addition and incubated for 2 hrs under 48 to 53 degreeC by CETSA; assay type: cell-based
[8] = target: NLRP3-NEK7 (Mus musculus) (UniProt Q8R4B8+Q9ES74); experiment: Inhibition of NLRP3/NEK7 protein-protein interaction in LPS-induced C57BL/6 mouse BMDM cells by co-immunoprecipitation based Western blot analysis; assay type: cell-based
Sequence of NLRP3-NEK7 (Mus musculus) (Q8R4B8 whole entry, looked up): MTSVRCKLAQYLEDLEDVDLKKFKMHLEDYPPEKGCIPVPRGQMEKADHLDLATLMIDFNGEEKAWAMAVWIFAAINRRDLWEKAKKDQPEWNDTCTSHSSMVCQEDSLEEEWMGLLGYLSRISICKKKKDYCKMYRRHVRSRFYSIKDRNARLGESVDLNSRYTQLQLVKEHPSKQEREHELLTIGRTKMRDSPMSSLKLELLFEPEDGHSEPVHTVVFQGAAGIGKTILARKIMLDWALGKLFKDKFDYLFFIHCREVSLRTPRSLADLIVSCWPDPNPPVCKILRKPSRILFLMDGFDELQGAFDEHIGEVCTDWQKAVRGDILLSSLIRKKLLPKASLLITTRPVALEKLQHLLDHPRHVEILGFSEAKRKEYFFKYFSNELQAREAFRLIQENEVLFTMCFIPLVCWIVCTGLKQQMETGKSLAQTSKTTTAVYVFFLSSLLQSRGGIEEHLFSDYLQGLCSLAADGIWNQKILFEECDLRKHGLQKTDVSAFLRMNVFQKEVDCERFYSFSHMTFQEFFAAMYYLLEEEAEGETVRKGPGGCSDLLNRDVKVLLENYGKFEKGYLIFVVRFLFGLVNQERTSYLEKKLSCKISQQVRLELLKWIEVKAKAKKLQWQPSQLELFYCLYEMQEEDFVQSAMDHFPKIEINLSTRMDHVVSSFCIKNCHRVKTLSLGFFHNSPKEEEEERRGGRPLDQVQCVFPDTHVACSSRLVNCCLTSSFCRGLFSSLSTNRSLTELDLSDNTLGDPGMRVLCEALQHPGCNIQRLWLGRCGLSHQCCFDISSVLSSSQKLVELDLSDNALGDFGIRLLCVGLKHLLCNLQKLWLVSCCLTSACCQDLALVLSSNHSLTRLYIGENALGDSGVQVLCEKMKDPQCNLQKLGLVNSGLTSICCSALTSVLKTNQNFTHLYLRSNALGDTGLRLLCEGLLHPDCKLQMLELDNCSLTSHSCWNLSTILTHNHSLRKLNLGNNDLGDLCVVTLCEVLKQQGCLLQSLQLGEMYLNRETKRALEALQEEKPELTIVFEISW
Sequence of NLRP3-NEK7 (Mus musculus) (Q9ES74 whole entry, looked up): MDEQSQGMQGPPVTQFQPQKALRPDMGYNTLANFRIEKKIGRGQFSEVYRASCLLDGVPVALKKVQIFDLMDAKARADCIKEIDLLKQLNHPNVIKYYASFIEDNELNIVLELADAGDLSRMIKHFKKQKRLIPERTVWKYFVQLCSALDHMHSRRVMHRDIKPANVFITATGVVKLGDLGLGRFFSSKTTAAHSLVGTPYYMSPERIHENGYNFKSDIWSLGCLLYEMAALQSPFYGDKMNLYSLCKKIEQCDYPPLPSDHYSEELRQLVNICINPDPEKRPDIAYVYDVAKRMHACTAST

Sequence of Serine/threonine-protein kinase Nek7 (Q8TDX7 whole entry): as the sequence (Q9ES74 whole entry, looked up) above, with T14P, S52A, D150E, I273M, I285V, A286T, T302S counted along it

Row | Structure (SMILES) | viability at 4 h, 0.1 µM [1] | inhibition [2] | other results
1 | CN1CCN(Cc2ccc(NC(=O)Nc3ccc(-c4ccc(N)nc4)cc3F)cc2C(F)(F)F)CC1 | 86% | 82.3% | CC50 at 4 h [3]: 247 nM; IC50 [4]: 30 nM; selectivity ratio [5]: 8.26
2 | CN1CCN(Cc2ccc(NC(=O)Nc3ccc(-c4ccc(O)nc4)cc3F)cc2C(F)(F)F)CC1 | 106% |  | 
3 | CN1CCN(Cc2ccc(NC(=O)Nc3ccc(-c4nccnc4N)cc3F)cc2C(F)(F)F)CC1 | 107% | 28.2% | 
4 | CN1CCN(Cc2ccc(NC(=O)Nc3ccc(-c4cnc(N)c5ccccc45)cc3F)cc2C(F)(F)F)CC1 | 108% | -7.76% | 
5 | COc1ccc(-c2ccc(NC(=O)Nc3ccc(CN4CCN(C)CC4)c(C(F)(F)F)c3)c(F)c2)cn1 | 104% |  | 
6 | CN1CCN(Cc2ccc(NC(=O)Nc3ccc(-c4cncnc4N)cc3F)cc2C(F)(F)F)CC1 | 106% | -1.08% | 
7 | CN1CCN(Cc2ccc(NC(=O)Nc3ccc(-c4cccnc4N)cc3F)cc2C(F)(F)F)CC1 | 65% |  | 
8 | CN1CCN(Cc2ccc(NC(=O)Nc3ccc(-c4cc5ccccc5nc4N)cc3F)cc2C(F)(F)F)CC1 | 86% |  | 
9 | CN1CCN(Cc2ccc(NC(=O)Nc3ccc(-c4cn(C5CC5)c5ncnc(N)c45)cc3F)cc2C(F)(F)F)CC1 | 17.2% |  | IC50 [6]: < 100 nM
10 | CC(=O)Nc1ccc(-c2ccc(NC(=O)Nc3ccc(CN4CCN(C)CC4)c(C(F)(F)F)c3)c(F)c2)cn1 | 98.3% | 90.3% | CC50 at 4 h [3]: 3840 nM; IC50 [4]: 48 nM; selectivity ratio [5]: 80.3; Activity [7]: Active; Compound Is Capable Of Binding To Nek7; inhibition [8]: Active
11 | CC(=O)Nc1ccc(-c2ccc(NC(=O)c3ccc(CN4CCN(C)CC4)c(C(F)(F)F)c3)c(F)c2)cn1 | 92.6% | 0% | 
12 | CNc1ccc(-c2ccc(NC(=O)Nc3ccc(CN4CCN(C)CC4)c(C(F)(F)F)c3)c(F)c2)cn1 | 95.5% | 41.5% | 
13 | CN1CCN(Cc2ccc(NC(=O)Nc3ccc(-c4ccnc(N)n4)cc3F)cc2C(F)(F)F)CC1 | 78% | 25.7% | 
14 | CC(=O)Nc1ccc(-c2ccc(C(=O)Nc3ccc(CN4CCN(C)CC4)c(C(F)(F)F)c3)c(F)c2)cn1 | 90.4% |  | 
15 | CN1CCN(Cc2ccc(NC(=O)Nc3ccc(-c4ncc(N)cn4)cc3F)cc2C(F)(F)F)CC1 | 71.8% |  | 
16 | CC(C)(O)c1coc(S(=O)(=O)NC(=O)Nc2c3c(cc4c2CCC4)CCC3)c1 |  | 66.7% | CC50 at 4 h [3]: > 10000 nM; IC50 [4]: 85 nM; selectivity ratio [5]: > 118
17 | CN1CCN(Cc2ccc(NC(=O)Nc3ccc(-c4nc(N)cc5ccccc45)cc3F)cc2C(F)(F)F)CC1 | 122% | 30.6% | 
18 | CN1CCN(Cc2ccc(NC(=O)Nc3ccc(-c4ccc(N)cn4)cc3F)cc2C(F)(F)F)CC1 | 104% |  | 
19 | CN1CCN(Cc2ccc(NC(=O)Nc3ccc(-c4ccnc(N)c4)cc3F)cc2C(F)(F)F)CC1 | 112% | 3.67% | 
20 | CN1CCN(Cc2ccc(NC(=O)Nc3ccc(-c4nc(N)c5ccccc5n4)cc3F)cc2C(F)(F)F)CC1 | 108% |  | 
21 | CC(=O)Nc1ccc(-c2ccc(NC(=O)Nc3ccc(CN4CCN(C)CC4)cc3)c(F)c2)cn1 | 94.9% |  | 
22 | CN1CCN(Cc2ccc(NC(=O)Nc3ccc(-c4cnc5cccnn45)cc3F)cc2C(F)(F)F)CC1 | 91.4% | -9.39% | 
23 | CN1CCN(Cc2ccc(NC(=O)Nc3ccc(-c4cccc(N)n4)cc3F)cc2C(F)(F)F)CC1 | 109% |  | 
24 | CC(=O)Nc1ccc(-c2ccc(NC(=O)Nc3cccc(C(F)(F)F)c3)c(F)c2)cn1 | 96.4% | -7.98% | 
25 | CN1CCN(Cc2ccc(NC(=O)Nc3ccc(-c4c(N)ncc5ccccc45)cc3F)cc2C(F)(F)F)CC1 | 61.1% |  | 
